Measurements taken from patent US9708314B2, “Heterocyclic amide compound” (NISSAN CHEMICAL INDUSTRIES, LTD., priority 2013, dated 2017).

Tests used:
[1] = test system: directly sowed Oryza sativa; assay: Test Example 3: effect on crop by application to foliage (Wagner pot, water depth 0.1-0.5 cm); assay type: in vivo; settings: Nineteenth Table
Summary of the method: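 Post-emergence foliar application at a stated g/ha rate to plants grown 14 days from seed in alluvial soil, greenhouse 25–30 °C. Visual score after 3 weeks: 0 (≤5% effect) through 5 (≥90%).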

Abutilon theophrasti = assay: Test Example 4: herbicidal effect by application to foliage (diluvial soil, plastic box); assay type: in vivo; settings: application to foliage, application herbicide amount 320 g/ha
Summary of the method: (§1)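 Read-out is a 0–5 visual grade of herbicidal ratio (5: ≥90%, almost withered; 0: ≤5%) taken three weeks after treatment. Compound was applied as a diluted emulsion to stem and leaf parts of 14-day greenhouse-grown plants (25° C. to 30° C.) at rates expressed as g/ha.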

Alopecurus myosuroides = assay: as above; assay type: in vivo; settings: application to foliage, application herbicide amount 320 g/ha
Summary of the method: as §1

Amaranthus retroflexus = assay: as above; assay type: in vivo; settings: application to foliage, application herbicide amount 320 g/ha
Summary of the method: as §1

Apera spica-venti. = assay: as above; assay type: in vivo; settings: application to foliage, application herbicide amount 320 g/ha
Summary of the method: as §1

Avena fatua = assay: as above; assay type: in vivo; settings: application to foliage, application herbicide amount 320 g/ha
Summary of the method: as §1

Digitaria ciliaris = assay: as above; assay type: in vivo; settings: application to foliage, application herbicide amount 320 g/ha
Summary of the method: as §1

Galium spurium = assay: as above; assay type: in vivo; settings: application to foliage, application herbicide amount 320 g/ha
Summary of the method: as §1

Lolium multiflorum Lam. = assay: as above; assay type: in vivo; settings: application to foliage, application herbicide amount 320 g/ha
Summary of the method: as §1

Setaria viridis = assay: as above; assay type: in vivo; settings: application to foliage, application herbicide amount 320 g/ha
Summary of the method: as §1

Stellaria media = assay: as above; assay type: in vivo; settings: application to foliage, application herbicide amount 320 g/ha
Summary of the method: as §1

Veronica persica = assay: as above; assay type: in vivo; settings: application to foliage, application herbicide amount 320 g/ha
Summary of the method: as §1

| melting point [°C] | Compound | b (directly sowed Oryza sativa) effect on crop grade ([1]; application herbicide amount 400 g/ha) | M (Abutilon theophrasti) herbicidal effect (Abutilon theophrasti) | J (Alopecurus myosuroides) herbicidal effect (Alopecurus myosuroides) | N (Amaranthus retroflexus) herbicidal effect (Amaranthus retroflexus) | L (Apera spica-venti.) herbicidal effect (Apera spica-venti.) | I (Avena fatua) herbicidal effect (Avena fatua) | F (Digitaria ciliaris) herbicidal effect (Digitaria ciliaris) | Q (Galium spurium) herbicidal effect (Galium spurium) | K (Lolium multiflorum Lam.) herbicidal effect (Lolium multiflorum Lam.) | G (Setaria viridis) herbicidal effect (Setaria viridis) | P (Stellaria media) herbicidal effect (Stellaria media) | R (Veronica persica) herbicidal effect (Veronica persica) | b (directly sowed Oryza sativa) effect on crop grade ([1]; application herbicide amount 320 g/ha) |
| --- | --- | --- | --- | --- | --- | --- | --- | --- | --- | --- | --- | --- | --- | --- |
| 176 to 178 | Cc1nnc(NC(=O)c2ccc(C(F)(F)F)n3c(C(C)C)nnc23)o1 [1-004, 3-Isopropyl-N-(5-methyl-1,3,4-oxadiazol-2-yl)-5-(trifluoromethyl)-[1,2,4]triazolo[4,3-a]pyridine-8-carboxamide] | 0 (Herbicidal ratio of 5% or less (almost no effect)) | 4 (Herbicidal ratio of 70% or more and less than 90%) | 2 (Herbicidal ratio of 20% or more and less than 40%) | 4 (Herbicidal ratio of 70% or more and less than 90%) | 3 (Herbicidal ratio of 40% or more and less than 70%) | 2 (Herbicidal ratio of 20% or more and less than 40%) | 5 (Herbicidal ratio of 90% or more (almost completely withered)) | 1 (Herbicidal ratio of 5% or more and less than 20%) | 2 (Herbicidal ratio of 20% or more and less than 40%) | 4 (Herbicidal ratio of 70% or more and less than 90%) | 5 (Herbicidal ratio of 90% or more (almost completely withered)) | 4 (Herbicidal ratio of 70% or more and less than 90%) | – |
| 230 to 233 | CSc1nnc2c(C(=O)Nc3nnc(C)o3)ccc(C(F)(F)F)n12 [1-018, N-(5-Methyl-1,3,4-oxadiazol-2-yl)-3-(methylthio)-5-(trifluoromethyl)-[1,2,4]triazol o[4,3-a]pyridine-8-carboxamide] | – | 3 (Herbicidal ratio of 40% or more and less than 70%) | 0 (Herbicidal ratio of 5% or less (almost no effect)) | 4 (Herbicidal ratio of 70% or more and less than 90%) | 0 (Herbicidal ratio of 5% or less (almost no effect)) | 0 (Herbicidal ratio of 5% or less (almost no effect)) | 0 (Herbicidal ratio of 5% or less (almost no effect)) | 0 (Herbicidal ratio of 5% or less (almost no effect)) | 0 (Herbicidal ratio of 5% or less (almost no effect)) | 2 (Herbicidal ratio of 20% or more and less than 40%) | 4 (Herbicidal ratio of 70% or more and less than 90%) | 4 (Herbicidal ratio of 70% or more and less than 90%) | 2 (Herbicidal ratio of 20% or more and less than 40%) |
